# Source: US20240270692A1, “S(+) FORM OF 4-(2,4-DIFLUOROPHENYL)-2-(1H-INDOL-3-YL)-4-OXO-BUTANOIC ACID” (TOHOKU UNIVERSITY, priority 2021, published 2024)
# Key:
# [1] = In vivo administration test 2: oral administration, plasma concentrations; conditions: male cynomolgus monkeys, single dose 100 mg/kg
# Protocol: Each enantiomer (S(+) form or R(−) form) of MA5 was dissolved in a mixed solution of physiological saline and 0.1 N sodium hydroxide (9:1), and filtered and sterilized by using a 0.22 μm filter to prepare a solution containing 2 mL/kg of each enantiomer of MA5. Next, the solution containing each enantiomer of MA5 was intravenously administered to each of three 4- to 5-year-old male cynomolgus monkeys at a single dose of 1 mg/kg. As a control, a solution containing no enantiomer of MA5 was also administered in the same manner. […] The analysis conditions for LC-MS/MS are as follows.
# As an ionization unit, an apparatus in which NANOSPACESI-2 (manufactured by OSAKA SODA CO., LTD.) as a high-performance liquid chromatograph was connected to a triple quadrupole mass spectrometer (TSQ Quantum Ultra, manufactured by Thermo Fisher Scientific Inc.) equipped with an ESI probe was used. The S(+) form of MA5 (S-(+)-MA5) and the R(−) form of MA5 (R-(−)-MA5), which are substances to be analyzed, were subjected to quantitative analysis by the internal standard method using their respective stable isotopes S-(+)-MA5-d6 and R-(−)-MA5-d6. […]
# The MS conditions were detected in negative ion mode, a spray voltage set to 2.5 kV, a vaporizer temperature set to 250° C., and an ion transfer tube temperature set to 250° C. […] Waveform analysis and quantitative calculation by the internal standard method were carried out by using Xcalibur (manufactured by Thermo Fisher Scientific Inc.).
# In “3. […] Specifically, according to the method described in “3-1 Method” above, a solution containing each enantiomer (S(+) form or R(−) form) of MA5 was orally administered to male cynomolgus monkeys at a single dose of 100 mg/kg, the concentration of each enantiomer of MA5 and the concentration of a reduced metabolite of each enantiomer of MA5 (the compound represented by formula (B) [that is, Red-MA5]) in plasma were measured.
# [2] = system: MT-ND3 mutant cell line; experiment: Cytotoxicity evaluation 2: cell survival level by MTT assay (Cell Counting Kit-8); assay type: cell-based, human; conditions: high concentrations (30 μM and 100 μM), cultured 5 days
# Protocol: Hereinafter, the present invention will be described more specifically with reference to Examples, but the technical scope of the present invention is not limited to these Examples. The INS-1E cell line was cultured in an incubator (37° C., 21% O2, 5% CO2) in the presence of RPMI-1640 Medium (manufactured by GIBCO) containing 11.1 mM glucose, 10% FBS, 1 mM sodium pyruvate, 10 mM HEPES, 2 mM glutamine, 50 μM β-mercaptoethanol, penicillin at 100 U/mL, and streptomycin at 100 μg/mL (hereinafter simply referred to as “RPMI-1640 Medium”). […]
# An MT-ND3 mutant cell line was seeded in a 96-well plate at 2×10^3 cells per well and cultured for 2 days in the presence of DMEM Low Glucose culture medium, then 0.1% DMSO, which is a solvent for the compounds, or various concentrations (0.003 μM, 0.01 μM, 0.03 μM, […], 0.3 μM, 1 μM, 3 μM, 10 μM, 30 μM, or 100 μM) of each enantiomer (S(+) form or R(−) form) of MA5 was added, the cells were further cultured for 5 days, and then the cell survival level was measured. Specifically, the cell survival level was measured by an MTT assay using Cell Counting Kit-8 (manufactured by Dojindo Laboratories). That is, 100 μL of Cell Count Reagent SF was added to each well, incubated for 2 hours, and stirred for 3 seconds with a microplate reader, and the absorbance at 450 nm (reference: 750 nm) was measured (see FIG. 4). […]
SMILES,reduced metabolite (Red-MA5) in plasma [1],viable cell level [2],concentration in plasma after oral administration [1]
"O=C(C[C@@H](C(=O)O)c1c[nH]c2ccccc12)c1ccc(F)cc1F [R(−) form of MA5, 4-(2,4-difluorophenyl)-2-(1H-indol-3-yl)-4-oxo-butanoic acid]",detected,a significant decrease in viable cell level was observed,
"O=C(C[C@H](C(=O)O)c1c[nH]c2ccccc12)c1ccc(F)cc1F [S(+) form of MA5, 4-(2,4-difluorophenyl)-2-(1H-indol-3-yl)-4-oxo-butanoic acid]",almost no reduced metabolite was detected,no decrease in viable cell level was observed,higher than that of the R(−) form of MA5 in plasma
